One data set concerns Female Balb/c mice. In words: Writhing test in mice, writhing induced by IP acetic acid (Example 13). Type of data set: in vivo. How it is done:
Experiments 1: The experiments were carried out on Female Balb/c mice (21-26g). Two experimental groups were used: control (untreated) (n=6) and treated group (n=6). […] Half an hour after nasal application, each animal in treated and control groups was IP administered with acetic acid 0.6% (10 ml/kg) and individually housed in cage with a smooth flat floor. Antinociception effect was recorded by counting the number of writhes 5 minutes after injection of acetic acid for period of 10 minutes. A writhe is indicated by abdominal constriction and stretching of at least one hind limb.
Experiment 2: The experiment was carried out on Female Balb/c mice (21-26g). Two experimental groups were used: control (untreated) (n=6) and treated group (n=6). […] Immediately after nasal application (t=0), each animal in treated and control groups was IP administered with acetic acid 0.6% (10 ml/kg) and individually housed in cage with a smooth flat floor. Antinociception was recorded by counting the number of writhes 5 minutes after injection of acetic acid for period of 10 minutes.
Experiment 3: The experiments were carried out on Female Balb/c mice (21-26g). Three experimental groups were used: control (untreated) (n=4), mice intranasally administered with the Diazepam IN vesicular composition (2.8µl in each nostril = diazepam dose of 5mg/kg animal) (n=4), and mice subcutaneously administered with the Diazepam solution 0.125 % at dose of 5mg/kg animal (n=4). […] Simultaneously, each animal in treated and control groups was IP administered with acetic acid 0.6% (10 ml/kg) and individually housed in cage with a smooth flat floor. Antinociception was recorded by counting the number of writhes 5 minutes after injection of acetic acid for period of 10 minutes.

The test system of the next data set is Plasmodium berghei anka. In words: Treatment and prophylaxis of malaria in infected mice, model of cerebral malaria (Example 12). The data set is classed as in vivo. Particulars: 10mg DHA/kg/day, ICR female mice; for mice survived: treatment regimen (from day 2 after infection, 4 days). Here is the method:
Experiments were carried out in vivo in ICR female mice infected with 10^6 erythrocytes parasitized Plasmodium berghei anka, a model of cerebral malaria with striking similarities to the human disease. Infections were monitored using giemsa-stained thin blood smears prepared from tail blood. The animals were treated under isoflurane anesthesia with 10mg DHA/kg/day in a two divided daily doses by two dosage regimens: prophylaxis regimen- starting at 2 days before the infection for a total of 6 days; treatment regimen- starting on day 2 after infection (parasitemia first detected) for a total of 4 days. Mice were either treated by the intranasal administration or by the i.p. injection containing the same DHA doses. Controls included placebo (delivery carrier only) and untreated infected animals. Experiments were conducted in accordance with institutional guidelines for animal care.

Another data set has as its system nasal mucosa. In words: Transport of fluorescent probe across nasal mucosa after in vivo administration, CLS microscopy (Example 15). To be noted: composition of the invention with 0.05% Rhodamine B, 100µL to the right nostril of rats, 1/2 hour. Here is the method:
A stock solution of Rhodamine B (2mg/mL) was prepared in water. 50mg of phospholipid were dissolved in 200 mg ethanol. […] The composition is stirred for additional 5 min. The composition is described in Table IV.

This is an account of results in EP1933809B1, “COMPOSITIONS FOR NASAL DELIVERY” (YISSUM RESEARCH DEVELOPMENT COMPANY OF THE HEBREW …, priority 2005, dated 2007).

On to `CN1C(=O)CN=C(c2ccccc2)c2cc(Cl)ccc21` [diazepam, 7-chloro-1,3-dihydro-1-methyl-5-phenyl-2H-1,4-benzo-diazepin-2-one], for which the “writhing episodes (number of writhes)” value is listed as “efficiently prevented writhing episodes” with Female Balb/c mice (Experiment 1: intranasal vesicular composition, 5mg/kg, 0.5 h before acetic acid injection, versus untreated control); “efficient in treating writhing episodes” in the data set with Female Balb/c mice (Experiment 2: intranasal vesicular composition, 5mg/kg, simultaneously with acetic acid injection, versus untreated control); “significantly more efficient in treating writhing episodes as compared to the same dose of the drug administered subcutaneously” with Female Balb/c mice (Experiment 3: intranasal vesicular composition 5mg/kg versus subcutaneous diazepam solution 5mg/kg, simultaneously with acetic acid injection).

On to `C[C@H]1[C@@H](O)O[C@@H]2O[C@@]3(C)CC[C@H]4[C@H](C)CC[C@@H]1[C@@]24OO3` [DHA, dihydroartemisinin], for which, in the data set on Plasmodium berghei anka (prophylaxis regimen, i.p. injection), the “mice in which parasites appeared” value was 74%. For the same compound, the values for the mice survived in the data set with Plasmodium berghei anka (i.p. injection) and with Plasmodium berghei anka (intranasal) were 19% and 75%, respectively.

As to `CCN(CC)c1ccc2c(-c3ccccc3C(=O)O)c3ccc(=[N+](CC)CC)cc-3oc2c1.[Cl-]` [rhodamine B, Rhodamine B], in the data set with nasal mucosa, the “transport across the nasal mucosa” value is “efficiently delivered”.
